How the values were obtained:
KHT tumors = assay: In vivo radiosensitization of KHT tumors (regrowth delay); set-up: species or system C3H mice
Procedure: This murine model is one which is routinely used to test hypoxic radiosensitizers. In fact, results obtained with this model were used as a basis for initiating clinical trials of nitroimidazoles as radiation sensitizers in the early to mid-1970's.
C3H mice with hind leg implants of KHT tumors were exposed to radiation. When the tumors had grown to 8 mm in circumference, the mice were treated with DEA/NO alone (control), 15 cGy directed at the tumor, or DEA/NO given 30 minutes before tumor irradiation with 15 cGy (DEA/NO (30 min)). The mice experienced a tumor regrowth delay of one day after treatment of the tumor with 15 cGy.

C3H mice = assay: Protection of mice from whole body irradiation; type: in vivo
Female C3H mice = assay: Protection of mice against melphalan toxicity; type: in vivo; conditions: 70 mg/kg DEA/NO, i.p.
Procedure: Female C3H mice were injected intraperitoneally with varying doses of melphalan alone or melphalan with 70 mg/kg DEA/NO. The methods employed were adaptations of the methods used in Examples 9 and 11.
FIG. 16 is a graph of % survival of animals versus does of melphalan (mg/kg) showing the chemotherapy survival curves for mice exposed to melphalan in the absence or presence of DEA/NO. […] DEA/NO provided approximately a 1.2 protection factor at the 50% survival level.

[1] = tested on: human MCF7 breast cancer cells; assay: Chemosensitization of human breast cancer cells to melphalan or thiotepa, clonogenic assay; conditions: 1 hr, 37° C.; for DEA/NO enhancement ratio at the 10% surviving fraction level: 1 mM DEA/NO
Procedure: FIG. 10 is a graph of surviving fraction versus concentration (μg/ml) of melphalan in the absence or presence of 1 mMDEA/NO or released DEA/NO showing the survival curves for human MCF7 breast cancer cells exposed to melphalan in the absence or presence of 1 mM DEA/NO or released DEA/NO.
FIG. 11 is a graph of surviving fraction versus concentration (μg/ml) of thiotepa in the absence or presence of 1 mM DEA/NO or released DEA/NO showing the survival curves for human MCF7 breast cancer cells exposed to thiotepa in the absence or presence of 1 mM DEA/NO or released DEA/NO.
(§1) Chinese hamster V79 lung fibroblasts were cultured in F12 medium supplemented with 10% fetal calf serum and antibiotics. […] The assay system was specifically designed to evaluate radiation sensitivity of cells exposed to radiation under both aerobic and hypoxic conditions (Mitchell et al., Radiat. Res., 96, 422-428 (1983); Russo et al., Radiat. Res., 103, 232-239 (1985); and DeGraff et al., Int. J. Radiat. Oncol. Biol. Phys., 16, 1021-1024 (1989)).
Human breast cancer cells in log phase were exposed for 1 hr at 37° C. to varying concentrations of melphalan or thiotepa in the absence or presence of 1 mM DEA/NO or released DEA/NO. […] Cytotoxicity was evaluated using the clonogenic assay of Example 2.
FIGS. 10 and 11 are graphs of surviving fraction versus concentration (μg/ml) of melphalan and thiotepa, respectively.

[2] = tested on: Chinese hamster V79 lung fibroblasts; assay: Cytotoxicity of the agents alone to V79 cells, clonogenic assay; conditions: no radiation
Procedure: as §1
(§2) When cultured cells were exposed to DEA/NO in subsequent examples, DEA/NO in F12 medium with 10 mM HEPES buffer, pH 7.0, was used. […] Control cells in subsequent examples were exposed to 0.02N NaOH, instead of DEA/NO.
Radiation survival curves for V79 cells exposed to varying concentrations of DEA/NO and various DEA/NO decomposition products under hypoxic conditions (metabolic hypoxia induction) are shown in FIG. 1A, which is a graph of the surviving fraction versus dose (Gy). Lines in FIG. 1A represent control (.circle-solid.) and 0.1 mM (Δ), 0.5 mM (.largecircle.), 1.0 mM (.quadrature.), and 2.0 mM (.box-solid.) DEA/NO. Survival curves were corrected for drug cytotoxicity as appropriate.
DEA/NO (2.0 mM) was allowed to decompose to liberate NO in medium maintained at 37° C. overnight in a flask open to the air for use as an additional control. The medium containing the DEA/NO decomposition products was then used to evaluate possible effects on radiosensitization.

[3] = tested on: Chinese hamster V79 lung fibroblasts; assay: Radiation survival of hypoxic V79 cells (metabolism-mediated oxygen depletion), clonogenic assay, SER; type: cell-based; conditions: 0.05 mM, 1% surviving fraction level
[4] = tested on: Chinese hamster V79 lung fibroblasts; assay: Radiation survival of aerobic V79 cells, clonogenic assay; type: cell-based
Procedure: as §1, §2
Following irradiation, the various cell suspensions were pipetted, counted, diluted, and plated for macroscopic colony formation. Each dose determination was plated in triplicate and experiments were repeated a minimum of two times. Plates were incubated for seven days, after which colonies were fixed with methanol/acetic acid (3:1), stained with crystal violet, and counted. Colonies containing >50 cells were scored and graphed as FIGS. 1-3. Error bars in the graphs represent the standard deviation of the mean and are shown when larger than the symbol used to designate a data point. Survival curve data were fitted using a linear quadratic model of Albright (Radiat. Res., 112, 331-340 (1987)), and the survival curves shown in the figures represent the best fit curves for the experimental data points. Sensitizer enhancement ratios (SER) were calculated by dividing the radiation dose for control hypoxic conditions by the radiation dose for various agents under hypoxic conditions at the 1% surviving fraction level.

[5] = tested on: Chinese hamster V79 fibroblasts; assay: Chemosensitization of V79 cells to bioreductive agents (mitomycin C, SR 4233)

## CCN(CC)/[N+]([O-])=N/[O-].[Na+] [DEA/NO]
KHT tumors; 80 mg/kg 30 min before 15 cGy tumor irradiation
  tumor regrowth delay: 8 days
KHT tumors; DEA/NO (30 min) group, 15 cGy
  survival with no evidence of tumor: Two animals in the DEA/NO (30 min) group survived for at least four weeks with no evidence of tumor
KHT tumors; DEA/NO before 15 cGy, n=14
  tumors eradicated: 14%
C3H mice; 700 cGy, 80 mg/kg i.p. 10 min before
  Percent survival of mice at 30 days: 100%
C3H mice; 700 cGy, 80 mg/kg i.p. 30 min before
  Percent survival of mice at 30 days: 100%
C3H mice; 800 cGy, 80 mg/kg i.p. 10 min before
  Percent survival of mice at 30 days: 100%
C3H mice; 800 cGy, 80 mg/kg i.p. 30 min before
  Percent survival of mice at 30 days: 90%
C3H mice; 900 cGy, 80 mg/kg i.p. 10 min before
  Percent survival of mice at 30 days: 77%
C3H mice; 900 cGy, 80 mg/kg i.p. 30 min before
  Percent survival of mice at 30 days: 80%
C3H mice; 1000 cGy, 80 mg/kg i.p. 10 min before
  Percent survival of mice at 30 days: 44%
C3H mice; 1000 cGy, 80 mg/kg i.p. 30 min before
  Percent survival of mice at 30 days: 10%
Female C3H mice
  protection against the effects of melphalan: protected the mice against the effects of melphalan
Female C3H mice; varying melphalan doses
  protection factor at the 50% survival level: ~1.2
[1]; melphalan and thiotepa, 1 mM
  enhancement of chemosensitivity / cytotoxicity: significantly enhanced the chemosensitivity of human breast cancer cells to melphalan and thiotepa
[1]; melphalan
  DEA/NO enhancement ratio at the 10% surviving fraction level: 3.3
[1]; thiotepa
  DEA/NO enhancement ratio at the 10% surviving fraction level: 1.3
[2]; 2 mM
  cytotoxicity of treatment alone: minimal cytotoxicity
[2]; 0.1-1.0 mM
  cytotoxicity of treatment alone: not cytotoxic
[3]
  SER: 1.0
[4]; 2.0 mM
  enhancement of aerobic radiosensitivity at the 1% survival level: 1.3
[4]; 0.5 and 1.0 mM
  effect on aerobic radiosensitivity: had no effect on aerobic radiosensitivity
[5]; 25 μm SR 4233, 1 mM, hypoxic, 1 hr
  enhancement of hypoxic cytotoxicity of SR 4233: enhance the hypoxic cytotoxicity of SR 4233
[5]; aerobic and hypoxic conditions
  enhancement of mitomycin C cytotoxicity: enhanced cytotoxicity under both aerobic and hypoxic conditions
